From PubChem BioAssay AID179 (DTP/NCI, 2004)
Several values for one entry are separate records, joined by “and”; a condition that tells them apart may be missing. Equal values may be shown once. Activity calls are given as the source filed them.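 Rule for the calls: active = compounds giving half or more protection of infected cells from virus-caused growth loss, again on retest; inactive = the rest.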 *1 amine or outer side, *2 acyl side, *3 side chain or, on linkers, in order; H or OH if unused. Where a SMILES comes first, the peptide text is derived from it. Bridges are numbered along the chain shown (N, C = ends). [ ]: non-standard residue; d: D form. The star is where a group is joined. ξ: configuration not given here. ξPhe(4-NO2) = NC(Cc1ccc([N+](=O)[O-])cc1)C(=O)O; X22 = CC(C)C(C)C(C(=O)[*:2])N(C)[*:1]; Picolinoyl(3-OH) = O=C(c1ncccc1O)*; NMePhg = CN[CH](C(=O)O)c1ccccc1; Hyp = O=C(O)[CH]1C[CH](O)CN1; Boc = CC(C)(C)OC(=O)*; OBn = c1ccc(CO*)cc1; Sar = CNCC(=O)O

Test system: CEM cells HIV-1 protection, formazan growth assay
Assay: NCI AIDS Antiviral Assay
Details: for IC50: measured here: growth of uninfected CEM cells
Procedure, shortened: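 Human CEM cells, uninfected and HIV-1-infected, exposed to five drug concentrations; growth measured by soluble formazan assay and scored as percent protection from infection, with protecting compounds retested.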

Row | Structure (SMILES) | EC50 [µM] | IC50 | outcome
1 | C=C1CN(S(=O)(=O)c2ccc(C)cc2)CCCN(Cc2ccc(C)o2)CCCN(S(=O)(=O)c2ccc(C)cc2)C1 | > 200 | > 200 µM | 
2 | COC(=O)CCCC=C(c1cc(C)c(OC)c(Br)c1)c1cc(C)c(OC)c(Br)c1 | > 200 | 39.8 µM | 
3 | COC(=O)C(CC(C)=O)CS(=O)(=O)CC(=O)C(=O)Nc1cccc([N+](=O)[O-])c1 (centres undefined) | > 162 | > 162 µM | 
4 | COc1cccc(C2SCC(=O)N2c2ccc(-c3ccc(-n4c(-c5ccccc5)nc5ccccc5c4=O)cc3)cc2)c1OC (centres undefined) | > 200 | 63.1 µM | 
5 | OC(C1CO1)C(O)C1CO1 (centres undefined) | > 427 | 0.891 µM | 
6 | CN1NC2=NCCN=C3NN(C)C(=NCCN=C1S2)S3 |  | > 200 µM | inactive
7 | CCOC(=O)/C=C\[C@H]1OC(C)(C)O[C@H]1[C@H](O)[C@H]1COC(C)(C)O1 | > 20 | 11.2 µM | 
8 | CC(C)(C)OC(=O)NC(Cc1ccc([N+](=O)[O-])cc1)C(=O)NCC(=O)OCc1ccccc1 (centres undefined) (Boc-[ξPhe(4-NO2)]-Gly-OBn) | > 200 | 33.1 µM | 
9 | O=c1cnn(C2OC(CO)C(F)C2F)c(=O)[nH]1 (centres undefined) | > 363 | > 363 µM | 
10 | O=C1N(Cc2ccccc2)CC(O)CN1Cc1ccccc1 | > 200 | 174 µM | 
11 | COc1cc(/C=C2/SC(c3ccccc3)N(c3ccc(NC(C)=O)cc3)C2=O)cc(OC)c1OC (centres undefined) | > 200 | 117 µM | 
12 | Cc1ccc(N=Nc2c(N)nn3cc4c(nc23)-c2ccccc2C4)cc1 | > 200 | 2.95 µM | 
13 | O=c1c2ccc3cccc4c(=O)cc(c5ccccc15)-c2c34 |  |  | inactive
14 | CCCc1cc(=O)oc2c3c(c4c(c12)OC(N)=C(C#N)C4c1ccccc1)O[C@H](C)[C@@H](C)C3=O (some centres undefined) | > 200 | 8.71 µM | 
15 | COc1ccc(-c2cc(C3CC3)nc(SCC(=O)O)c2C#N)cc1 | > 200 | 39.8 µM | 
16 | CC1(C(=O)O)CCC(C(=O)O)C(C)(C)O1 (centres undefined) | > 200 | > 200 µM | 
17 | CCN(CC)C(=S)N=Nc1c(O)[nH]c2ccccc12 | > 200 | 1.1 µM | 
18 | [O-][n+]1c2ccccc2[n+]([O-])c2c3ccccc3[nH]c21 | > 20.9 | > 20.9 µM | 
19 | CC(O)C(C(=O)O)N(CC1(O)OCC(O)C(O)C1O)N=O (centres undefined) |  |  | inactive
20 | O=C1CCC2c3[nH]c4ccccc4c3CCN12 (centres undefined) | > 200 | 186 µM | 
21 | Cc1cc2c(cc1C)[n+](=O)c(C(=O)CC(=O)C(=O)Nc1ccccc1C)c(C)n2[O-] | > 9.33 | > 9.33 µM | 

Row | Structure (SMILES) | EC50 [µM] | IC50 | outcome
22 | Cc1ccc(S(=O)(=O)NN=C2CCCCCCCCCCC2)cc1 | > 200 | > 200 µM | 
23 | O=[N+]([O-])c1nccn1CC(O)c1ccccc1 (centres undefined) | > 1070 | > 1070 µM | 
24 | COc1cc2cnc3c4cc(OC)c(OC(C)C)cc4ccc3c2cc1OC | > 5.37 | > 5.37 µM | 
25 | CC1(O)CSc2c(C=O)c3ccccc3n21 (centres undefined) | > 1070 | 67.6 µM | 
26 | CCCOc1cnc([C@H]2CCC3[C@@H]4CC=C5C[C@@H](OC(=O)CCC(=O)O)CC[C@]5(C)C4CC[C@@]32C)s1 (some centres undefined) | > 47.9 | 19.1 µM | 
27 | N=C(/C=C/c1ccc(-c2cn3cc(/C=C/C(=N)N4CCCC4)ccc3n2)cc1)N1CCCC1 | 25.1 | 64.6 µM | 
28 | CC(=O)O[C@H]1C[C@H]2[C@@H](OC(C)=O)/C=C3\C[C@](C)(C(=O)[C@H](O)C(=C1C)C2(C)C)[C@@H](O)C[C@@H]3OC(=O)[C@H](O)[C@H](c1ccccc1)N(C)C | > 200 | > 200 µM | 
29 | CN(N=O)C(=O)N(N)CCCCC(NC(=O)OCc1ccccc1)C(=O)OCc1ccccc1 (centres undefined) | > 39.8 | > 39.8 µM | 
30 | COC(=O)c1ccccc1C#CC#Cc1ccccc1C(=O)OC | > 200 | 24 µM | 
31 | CC(C)=C/C(CC(O)(C(F)(F)F)C(F)(F)F)=N\O | > 200 | > 200 µM | 
32 | O=c1c2ccccc2c2cc3ccc4c(=O)c5ccccc5c5cc6ccc1c2c6c3c45 | > 200 | > 200 µM | 
33 | CN(C)CCn1c(=O)c2ccc(NCCNCCO)c3c(=O)c4cc(O)ccc4n(c1=O)c23 | > 2 | 0.407 µM | 
34 | CC1N=C(SCC(=O)c2ccc(F)cc2)N2C(C)N=C(SCC(=O)c3ccc(F)cc3)N12 (centres undefined) | > 75.9 | > 75.9 µM | 
35 | CCOC(=O)NN(C(=O)OCC)c1c(C)cc(C)cc1C | > 200 | > 200 µM | 
36 | COC(=O)NN(C(=O)OC)c1c(-c2ccccc2)nc(SC)n1N | > 200 | > 200 µM | 
37 | CN(C)C=Nc1c(Br)cc(Br)c2nonc12 | > 200 | > 200 µM | 
38 | N#Cc1nc(/C=C/c2cccs2)oc1N | > 200 | 107 µM | 
39 | CCCCCCCCCCCOCCC1C(C(C)OCCN2CCCC2)OC2OC(C)(C)OC21 (centres undefined) | > 200 | 9.12 µM | 
40 | C/C=C(\C1CC(=O)N2CCc3c([nH]c4ccccc34)C2C1)[Si](C)(C)C (centres undefined) | > 14.8 | > 14.8 µM | 
41 | O=C1/C(=C/c2cccc(Br)c2)Cc2ccccc21 | > 200 | 17 µM | 
42 | Cc1ccc(C(=O)O/N=C2/CCCC/C2=C\c2ccccc2)cc1 |  |  | inactive

Row | Structure (SMILES) | EC50 [µM] | IC50 | outcome
43 | CCC12CCC3CCCCC3(OO1)[C@@H](OC)O2 (some centres undefined) | > 51.3 | > 51.3 µM | 
44 | O=C(O)c1cc[c]([Sb](=[O])([OH])[OH])cc1[N+](=O)[O-] | 10.2 | 398 µM | 
45 | O=C1OC(=O)C2C1C(c1ccccc1[N+](=O)[O-])C=C(c1ccco1)N2c1ccncc1 (centres undefined) | > 20 | 2.51 µM | 
46 | CCOCCOCCOCc1nc(C#N)c(N)o1 | > 200 | > 200 µM | 
47 | CC(C)[Si](Oc1cc2c3c(ccc2c(O)c1[C@@H](C)CO[Si](C)(C)C(C)(C)C)C(C)(C)CCC3)(C(C)C)C(C)C | > 200 | 40.7 µM | 
48 | CC(C)[C@@H]1C=C(c2ccccc2)c2ccccc2C1C(C#N)(C#N)C(C)C (some centres undefined) | > 20.4 | > 20.4 µM | 
49 | CCOP(=O)(OCC)/C(=C/c1ccccc1)CC(C)=O | > 200 | 148 µM | 
50 | c1cnc(NCCSSCCNc2ncccn2)nc1 | > 200 | 38 µM | 
51 | Cc1nn(C(=O)c2ccc(Cl)cc2)c2c1C(c1ccc(O)cc1)SC(N)=N2 (centres undefined) | > 200 | > 200 µM | 
52 | O=c1cc(/C=C/c2ccccc2)c2ccc(O/C(=C\c3ccccc3)c3nc4ccccc4c(=O)o3)cc2o1 |  |  | inactive
53 | CC(C)C(F)(C(N)=O)C(=O)O (centres undefined) | > 200 | > 200 µM | 
54 | CCOP(=O)(/N=C1/C2CCC(C2)C1C)OCC (centres undefined) | > 234 | > 234 µM | 
55 | O=C(NC(=Nc1ccccc1)SCSC(=Nc1ccccc1)NC(=O)c1c(Cl)cccc1Cl)c1c(Cl)cccc1Cl | > 200 | 14.1 µM | 
56 | Cc1nn(C(=O)c2ccc(Cl)cc2)c2c1C(c1cccc([N+](=O)[O-])c1)SC(N)=N2 (centres undefined) | 126 | 138 µM | 
57 | Oc1ccc(Cl)cc1C(c1cc(Cl)ccc1O)C(Cl)(Cl)Cl | 9.77 | 16.6 µM | 
58 | Cc1oc2ccccc2c(=O)c1C |  |  | inactive
59 | CCSc1n/c(=C\c2ccco2)c2nncn12 | > 100 | > 100 µM | 
60 | CC(C)CC1NC(=O)C(NC(=O)c2ncccc2O)C(C)OC(=O)C(c2ccccc2)N(C)C(=O)C(C)NC(=O)C(C(C)C(C)C)N(C)C(=O)CN(C)C(=O)C2CC(O)CN2C1=O (centres undefined) ({Picolinoyl(3-OH)}-TL[Hyp][Sar][X22]A[NMePhg]; ester 1-C; configuration not given here) |  |  | inactive
61 | COc1ccc2nc3cc([N+](=O)[O-])ccc3c(NNc3ccc([N+](=O)[O-])cc3)c2c1 | > 200 | 50.1 µM | 
62 | O=S1(=O)CSc2ccc3ccccc3c2-c2c1ccc1ccccc21 | > 27.5 | > 27.5 µM | 
63 | COc1ccc(CC#C/C=C/C(=O)NCC(C)C)cc1 | > 95.5 | 14.1 µM | 

Row | Structure (SMILES) | EC50 [µM] | IC50 | outcome
64 | O=C1CC[C@H](O)Cc2ccc(O)c(c2)-c2cc(ccc2O)CC1O (some centres undefined) | > 759 | 724 µM | 
65 | COc1ccc(-c2c(C(C)=O)c(-c3ccccc3)n(C3OC(COC(C)=O)C(OC(C)=O)C(OC(C)=O)C3OC(C)=O)c(=S)c2C#N)cc1O (centres undefined) | > 200 | 24.5 µM and 38.9 µM | 
66 | Cc1cccc(CNc2ncnc3[nH]ncc23)c1 | > 200 | > 200 µM | 
67 | CC1(C)C(=O)CC[C@@]2(C)C1CC[C@]1(C)C2CC=C2[C@@H]3C[C@](C)(C(=O)O)CC[C@]3(C)CCC21C (some centres undefined) | > 200 | 95.5 µM | 
68 | O=C1NC(N/N=C\C(O)C(O)C(O)C(O)CO)=N/C1=C/c1ccccc1 (centres undefined) | > 200 | 105 µM and 31.6 µM and > 200 µM | 
69 | COc1ccc2[nH]c3c(C)c4ccnc(NCCCN(C)CCCNc5ccc([N+](=O)[O-])c6[nH]c7ccccc7c(=O)c56)c4c(C)c3c2c1 | > 0.0501 | 0.0257 µM | 
70 | O=[N+]([O-])C(C(Cl)=C(Cl)Cl)=C(N(Cc1ccccc1)Cc1ccccc1)N(Cc1ccccc1)Cc1ccccc1 | > 0.2 | > 0.2 µM | 
71 | Cc1ccccc1N=NC(C(=O)c1ccccc1)C(=O)c1ccccc1 | > 20.9 | 14.8 µM | 
72 | O=C(CC(O)(c1ccccc1)c1ccc(Cl)cc1)NC(=O)c1ccccc1O (centres undefined) | > 13.2 | > 13.2 µM | 
73 | COc1ccc2c(c1OC)C(=O)N1C2=Cc2c(cc3c(c2OC)OCO3)CC1N(C)C (centres undefined) | > 200 | 26.9 µM | 
74 | CCCN(CCC)C(=O)C(=O)c1c(N)[nH]n(-c2ccccc2)c1=O |  |  | inactive
75 | CC1=CC(C/C(C)=C/COc2ccc3ccc(=O)oc3c2)OC1=O (centres undefined) | > 3.24 | > 3.24 µM | 
76 | Cc1ccc(C)c(NC(=O)C(=O)C2C(=O)N(c3ccccc3)N=C2N)c1 (centres undefined) | > 708 | 631 µM | 
77 | Cc1ccc(NC(=O)C(=O)CC(=O)c2ccccc2)cc1C | > 4.9 | > 4.9 µM | 
78 | COCCOCCOCCOc1ccc(C(C#N)N(CCc2ccccc2)C(=O)c2cc(C(=O)N(CCc3ccccc3)C(C#N)c3ccc(OCCOCCOCCOC)cc3)cc(C(=O)N(CCc3ccccc3)C(C#N)c3ccc(OCCOCCOCCOC)cc3)c2)cc1 (centres undefined) | > 200 | > 200 µM | 
79 | CC(=O)NNc1nc(C)c(C(/C=C/c2ccc([N+](=O)[O-])cc2)=N/NC(N)=O)s1 | > 33.9 | > 33.9 µM | 
80 | O=C1OC2(c3ccc(O)cc3Oc3cc(O)ccc32)c2c1c(-c1ccccc1)c(-c1ccccc1)c(-c1ccccc1)c2-c1ccccc1 | 10 | 16.6 µM | 
81 | COc1ccc(/C(C)=N/NC(N)=S)cc1OC |  |  | inactive
